In ChEMBL document CHEMBL4828718, “Synthesis and Antifungal Activity Evaluation of Phloeodictine Analogues” (J Nat Prod, 2021):
pIC50: −log10 of the molar value. In brackets after ≈: the same amount, converted by molar mass. Activity calls are given as the source filed them. The rule behind the calls is not given here.

Experiments:
Cryptococcus neoformans [1] = assay: Antifungal activity against Cryptococcus neoformans ATCC 90113 assessed as fungal growth inhibition incubated for 72 hrs by alamar blue assay; type: functional
Cryptococcus neoformans [2] = assay: Fungicidal activity against Cryptococcus neoformans ATCC 90113 assessed as fungal growth inhibition incubated for 72 hrs by alamar blue assay; type: functional
Candida albicans [3] = assay: Antifungal activity against Candida albicans ATCC 90028 assessed as fungal growth inhibition incubated for 18 to 24 hrs by alamar blue assay; type: functional
Candida albicans [4] = assay: Fungicidal activity against Candida albicans ATCC 90028 assessed as fungal growth inhibition incubated for 18 to 24 hrs by alamar blue assay; type: functional
Nakaseomyces glabratus [5] = assay: Antifungal activity against Candida glabrata ATCC 90030 assessed as fungal growth inhibition incubated for 18 to 24 hrs by alamar blue assay; type: functional
Nakaseomyces glabratus [6] = assay: Fungicidal activity against Candida glabrata ATCC 90030 assessed as fungal growth inhibition incubated for 18 to 24 hrs by alamar blue assay; type: functional
Pichia kudriavzevii [7] = assay: Antifungal activity against Candida krusei ATCC 6258 assessed as fungal growth inhibition incubated for 18 to 24 hrs by alamar blue assay; type: functional
Pichia kudriavzevii [8] = assay: Fungicidal activity against Candida krusei ATCC 6258 assessed as fungal growth inhibition incubated for 18 to 24 hrs by alamar blue assay; type: functional
Aspergillus fumigatus [9] = assay: Antifungal activity against Aspergillus fumigatus ATCC 90906 assessed as fungal growth inhibition incubated for 72 hrs by alamar blue assay; type: functional
Aspergillus fumigatus [10] = assay: Fungicidal activity against Aspergillus fumigatus ATCC 90906 assessed as fungal growth inhibition incubated for 72 hrs by alamar blue assay; type: functional
Vero = assay: Cytotoxicity against African green monkey Vero cells assessed as reduction in cell viability incubated for 48 hrs by neutral red dye based assay; set-up: species or system Chlorocebus sabaeus
[11] = Cryptococcus neoformans, ATCC 90113, 72 h, read-out: MIC
[12] = Cryptococcus neoformans, ATCC 90113, 72 h, read-out: MFC
[13] = Candida albicans, ATCC 90028, time 18-24 hrs, read-out: MIC
[14] = Candida albicans, ATCC 90028, time 18-24 hrs, read-out: MFC
[15] = Nakaseomyces glabratus, ATCC 90030, time 18-24 hrs, read-out: MIC
[16] = Nakaseomyces glabratus, ATCC 90030, time 18-24 hrs, read-out: MFC
[17] = Pichia kudriavzevii, ATCC 6258, time 18-24 hrs, read-out: MIC
[18] = Pichia kudriavzevii, ATCC 6258, time 18-24 hrs, read-out: MFC
[19] = Aspergillus fumigatus, ATCC 90906, 72 h, read-out: MIC
[20] = Aspergillus fumigatus, ATCC 90906, 72 h, read-out: MFC
[21] = Chlorocebus sabaeus, Vero, 48 h

SMILES	MIC (Cryptococcus neoformans [1]; [11]) [µM]	MFC (Cryptococcus neoformans [2]; [12]) [µM]	MIC (Candida albicans [3]; [13]) [µM]	MFC (Candida albicans [4]; [14]) [µM]	MIC (Nakaseomyces glabratus [5]; [15]) [µM]	MFC (Nakaseomyces glabratus [6]; [16]) [µM]	MIC (Pichia kudriavzevii [7]; [17]) [µM]	MFC (Pichia kudriavzevii [8]; [18]) [µM]	MIC (Aspergillus fumigatus [9]; [19]) [µM]	MFC (Aspergillus fumigatus [10]; [20]) [µM]	pIC50 (Vero; [21])	MFC (Candida albicans [4]; time 18-24 hrs)	MIC (Aspergillus fumigatus [9])	MFC (Aspergillus fumigatus [10])	other results
CCCCCCCCCCCCCCC1(O)C(C)=C(C)C2=[N+](CC(=O)NCCCC)CCCN21 (configuration not stated)	1.8	1.8	7.5	10	5.2	5.9	3.8	3.8	7.5	7.5	4.35				
CCCCCCCCCCCCCCC1(O)C(C)=C(C)C2=[N+](Cc3cnnn3Cc3ccccc3)CCCN21 (configuration not stated)	1.3	2	5.4	6.8	3.4	4.7	2.8	2.8	6.8	6.8	< 4.40				
CCCCCCCCCCCCCCC1(O)C(C)=C(C)C2=[N+](Cc3ccc(F)cc3F)CCCN21 (configuration not stated)	0.88	1.1	3.7	3.7	1.8	1.8	1.8	1.8	3	3.7	4.55				
CCCCCCCCCCCCCCC1(O)C(C)=C(C)C2=[N+](Cc3ccc([N+](=O)[O-])cc3)CCCN21 (configuration not stated)	1.4	1.4	4.3	4.3	2.1	2.1	1.7	1.7	5	5	4.44				
CCCCCCCCCCCCCCc1c(C)c(C)cn1CCCNCc1ccccc1											4.38	inactive	inactive	inactive	MIC (Cryptococcus neoformans [1]): inactive; MFC (Cryptococcus neoformans [2]): inactive; MIC (Candida albicans [3]; time 18-24 hrs): inactive; MIC (Nakaseomyces glabratus [5]; time 18-24 hrs): inactive; MFC (Nakaseomyces glabratus [6]; time 18-24 hrs): inactive; MIC (Pichia kudriavzevii [7]; time 18-24 hrs): inactive; MFC (Pichia kudriavzevii [8]; time 18-24 hrs): inactive
C#CC[N+]1=C2C(C)=C(C)C(O)(CCCCCCCCCCCCCC)N2CCC1 (configuration not stated)	1.5	2.3	5.2	5.2	5.2	5.2	2.1	2.1	5.2	5.2	4.46				
CCCCCCCCCCCCCCC1(O)C=CC2=[N+](C)CCCN21 (configuration not stated)	0.21	0.21	5.2	5.2	1.7	1.7	2.1	2.1	4.4	4.4	4.77				
CCCCCCCCCCCCCCC1(O)C(C)=C(C)C2=[N+](Cc3ccc(C#N)cc3)CCCN21 (configuration not stated)	1.1	1.1	4.5	4.5	2.1	2.1	2.1	2.1	4.5	4.5	4.54				
CCCCCCCCCCCCCCC1(O)C(C)=C(C)C2=[N+](Cc3cc(C(F)(F)F)cc(C(F)(F)F)c3)CCCN21 (configuration not stated)	1.8	2.5	30		2.5	2.5	3.7	3.7			< 4.43	inactive	inactive	inactive	
CCCCCCCCCCCCCCC1(O)C(C)=C(C)C2=[N+](CC(=O)O)CCCN21 (configuration not stated)	5.4	5.4									< 4.30	inactive	inactive	inactive	MIC (Candida albicans [3]; time 18-24 hrs): inactive; MIC (Nakaseomyces glabratus [5]; time 18-24 hrs): inactive; MFC (Nakaseomyces glabratus [6]; time 18-24 hrs): inactive; MIC (Pichia kudriavzevii [7]; time 18-24 hrs): inactive; MFC (Pichia kudriavzevii [8]; time 18-24 hrs): inactive
CCCCCCCCCCCCCCC1(O)C(C)=C(C)C2=[N+](CC(=O)NCCOCCOCCOCCNC(=O)CCCC[C@@H]3SC[C@@H]4NC(=O)N[C@@H]43)CCCN21 (some centres not stated)	3.7	4.5									< 4.55	inactive	inactive	inactive	MIC (Candida albicans [3]; time 18-24 hrs): inactive; MIC (Nakaseomyces glabratus [5]; time 18-24 hrs): inactive; MFC (Nakaseomyces glabratus [6]; time 18-24 hrs): inactive; MIC (Pichia kudriavzevii [7]; time 18-24 hrs): inactive; MFC (Pichia kudriavzevii [8]; time 18-24 hrs): inactive
CCCCCCCCCCCCCCC1(O)C(C)=C(C)C2=[N+](Cc3ccc4ccccc4c3)CCCN21 (configuration not stated)	3.9	12									4.38	inactive	inactive	inactive	MIC (Candida albicans [3]; time 18-24 hrs): inactive; MIC (Nakaseomyces glabratus [5]; time 18-24 hrs): inactive; MFC (Nakaseomyces glabratus [6]; time 18-24 hrs): inactive; MIC (Pichia kudriavzevii [7]; time 18-24 hrs): inactive; MFC (Pichia kudriavzevii [8]; time 18-24 hrs): inactive
CCCCCCCCCCCCCCC1(O)C(C)=C(C)C2=[N+](Cc3ccc(Cl)cc3)CCCN21 (configuration not stated)	3.7	3.7	3.7	3.7	2.1	2.1	2.1	2.1	4.4	4.4	4.38				
CCCCCCCCCCCCCCc1c(C)c(C)cn1CCCN	2.9 (≈ 1.01 µg/mL)	2.9 (≈ 1.01 µg/mL)	24 (≈ 8.37 µg/mL)	24 (≈ 8.37 µg/mL)	11 (≈ 3.83 µg/mL)	12 (≈ 4.18 µg/mL)	12 (≈ 4.18 µg/mL)	12 (≈ 4.18 µg/mL)	19 (≈ 6.62 µg/mL)	19 (≈ 6.62 µg/mL)	4.36				
CCCCCCCCCCCCCCC1(O)C(C)=C(C)C2=[N+](Cc3cccc(OC)c3)CCCN21 (configuration not stated)	1.1	1.1	3	3	2.1	2.1	2.1	3	3	3	4.62				
CCCCCCCCCCCCCCC1(O)C(C)=C(C)C2=[N+](CC(=O)c3cccc(Cl)c3)CCCN21 (configuration not stated)	3.7	3.7	18	18	4.9	4.9	6.2	6.2			5.11		inactive	inactive	
CCCCCCCCCCCCCCC1(O)C(C)=C(C)C2=[N+](Cc3ccccc3)CCCN21.[Cl-] (configuration not stated)												6.7 µM	5.9 µM	5.9 µM	MIC (Cryptococcus neoformans [1]): 2 µM; MFC (Cryptococcus neoformans [2]): 2 µM; MIC (Candida albicans [3]; time 18-24 hrs): 6.7 µM; MIC (Nakaseomyces glabratus [5]; time 18-24 hrs): 4.3 µM; MFC (Nakaseomyces glabratus [6]; time 18-24 hrs): 4.3 µM; MIC (Pichia kudriavzevii [7]; time 18-24 hrs): 4.3 µM; MFC (Pichia kudriavzevii [8]; time 18-24 hrs): 4.3 µM; pIC50 (Vero; vero): 4.44
